Values of other authors, collected in patent US20060134216A1, “Enteric film coating composition containing enteric polymer micronized with detackifier” (priority 2004, published 2006).

Conditions: aqueous solution at pH values under 4.0

## COc1ccc2[nH]c([S+]([O-])Cc3ncc(C)c(OC)c3C)nc2c1 (stereo not shown) [omeprazole]
  half-life: less than ten
